In ChEMBL document CHEMBL4725230, “Syntheses and pharmacokinetic evaluations of four metabolites of 2-(4-(2-((1H-benzo[d]imidazol-2-yl)thio)ethyl)piperazin-1-yl)-N-(6-methyl-2,4-bis-(methylthio)pyridin-3-yl)acetamide hydrochloride [K-604], an acyl-CoA:cholesterol O-acyltransferase-1 inhibitor” (Bioorg Med Chem, 2020) one finds Retention_time data, which are given here for two molecules.

The data set is described as follows: Retention time of the compound in human liver microsomes after 5 mins in presence of NADPH by LC-MS/MS analysis. The class given is ADME, Microsome.

`CSc1cc(C)nc(SC)c1NC(=O)CN1CCN(CCSc2nc3cc(O)ccc3[nH]2)CC1`: the Retention_time is listed as 3.21 min.

With `CSc1nc(C)cc([S+](C)[O-])c1NC(=O)CN1CCN(CCSc2nc3ccccc3[nH]2)CC1` (configuration not stated), the Retention_time amounted to 3.37 min.
